Reference: US8916709B2, “1,2,4-oxadiazole and 1,2,4-thiadiazole β-lactamase inhibitors” (priority 2012, dated 2014)
Structures can show the parent of a compound that is named as a salt.

Key:
[1] = test system: bacterial strains that express OXA-15 β-lactamases; assay: Standard BLI potentiation MIC / synergy MIC assays, strains expressing OXA-15; type: cell-based, E. coli; conditions: in combination with a β-lactam; versus Avibactam (comparator compound CCC)
Description: (§1) A set of β-lactamase expressing isogenic E. coli strains was constructed by cloning a β-lactamase gene into a customized derivative of pBR322 (GenBank Accession Number J01749) and transforming the engineered plasmids into E. coli. The NdeI restriction site within the plasmid backbone of pBR322 was removed to generate pBR322ΔNdeI. The pBR322ΔNdeI vector itself, minus the blaTEM-1 gene, was amplified using two primers: (1) pBR-Pbla 5′-[…]-3, SEQ ID 1, a primer with an engineered NdeI restriction site at the 3′ end of the blaTEM-1 promoter and (2) pBR-vec-1 5′-[…]-3′, SEQ ID 2, a primer with an engineered BamHI restriction site at the 3′ end of the blaTEM-1 open reading frame. The chloramphenicol resistance gene, cat, was generated by PCR amplification from pKD3 (GenBank Accession Number AY048742) using primers with an engineered NdeI restriction site at the 5′ end (Pbla-cat 5′-[…]-3′, SEQ ID 3) and an engineered BamHI restriction site at the 3′ end (Vec-1-cat 5′-[…]-3′, SEQ ID 4) of the resistance gene. The two PCR products, pBR322ΔNdeI and cat were ligated together generating pBR-CBST (pBR322ΔNdeI ΔTEM-1::cat Seq. ID 5) which retains both the pBR322 tetracycline resistance cassette, tetA, and the plasmid origin of replication but the blaTEM-1 gene was replaced by the cat gene.
(§2) Using this engineering strategy a number of plasmids producing β-lactamase genes from different classes (see below) were generated using synthetic genes with an engineered NdeI restriction site at the 5′ end and BamHI restriction site at the 3′ end of each gene (GenScript). Both the synthetic β-lactamase genes and cat gene were ligated into the NdeI/BamHI sites of the pBR322ΔNdeI PCR product and transformed into electrocompetent E. coli ElectroMax DH10B (Invitrogen/Life Technologies). E. coli DH10B harboring the recombinant plasmids were selected on LB agar (supplemented with 25 μg/mL tetracycline) and single isolated colonies were then inoculated into 5 mL LB media (supplemented with 25 μg/mL tetracycline), and incubated at 37° C. with aeration (250 rpm) for 18 hrs. The cultures were frozen back at −80° C. in 20% glycerol. The DNA sequence of the cloned β-lactamase genes was confirmed. The β-lactamase gene expression in the recombinant E. coli strains was driven by the blaTEM-1 promoter in the pBR-CBST plasmid and was characterized by MIC profiling of the E. coli recombinant strains against comparator β-lactam/BLI combinations in broth microdilution assay. […]

[2] = test system: bacterial strains that express KPC β-lactamases; assay: Standard BLI potentiation MIC / synergy MIC assays, strains expressing KPC; type: cell-based; conditions: in combination with a β-lactam; versus Avibactam
Description: as §1, §2

| Compound | activity against strains that express OXA-15 β-lactamases compared with Avibactam [1] | activity / spectrum of activity against strains that express KPC β-lactamases compared with Avibactam [2] |
| --- | --- | --- |
| Nc1nc([C@@H]2CC[C@@H]3CN2C(=O)N3OS(=O)(=O)O)no1 [Compound 805, (2S,5R)-2-(5-amino-1,2,4-oxadiazol-3-yl)-7-oxo-1,6-diazabicyclo[3.2.1]octan-6-yl hydrogen sulfate] | more active than Avibactam | more active than, and/or show a better spectrum of activity than Avibactam |
| CCCC[N+](CCCC)(CCCC)CCCC.Nc1noc([C@@H]2CC[C@@H]3CN2C(=O)N3OS(=O)(=O)[O-])n1 [Compound 802, (2S,5R)-2-(3-amino-1,2,4-oxadiazol-5-yl)-7-oxo-1,6-diaza-bicyclo[3.2.1]octan-6-yl tetrabutylaminooxy sulfonate] | more active than Avibactam | more active than, and/or show a better spectrum of activity than Avibactam |
| O=C1N2C[C@@H](CC[C@H]2c2ncno2)N1OS(=O)(=O)O [Compound 801, (2S,5R)-2-(1,2,4-oxadiazol-5-yl)-7-oxo-1,6-diazabicyclo[3.2.1]octan-6-yl hydrogen sulfate] | more active than Avibactam | more active than, and/or show a better spectrum of activity than Avibactam |
| O=C1N2C[C@@H](CC[C@H]2c2ncon2)N1OS(=O)(=O)O [Compound 804, (2S,5R)-2-(1,2,4-oxadiazol-3-yl)-7-oxo-1,6-diazabicyclo[3.2.1]octan-6-yl hydrogen sulfate] | more active than Avibactam | more active than, and/or show a better spectrum of activity than Avibactam |
